Measured values taken from patent US9320739B2 (AMBIT BIOSCIENCES CORPORATION, priority 2008, dated 2016).

What follows are compounds tested on panel of 290 distinct kinases (321 in the larger panel), excluding mutant variants. Conditions: asterisk: panel of 321 distinct kinases.
Experimental: Competition binding assays used herein were developed, validated and performed as described in Fabian et al., Nature Biotechnology 2005, 23, 329-336. […] The liganded beads were blocked with excess biotin and washed with blocking buffer (SeaBlock (Pierce), 1% BSA, 0.05% Tween 20, 1 mM DTT) to remove unbound ligand and to reduce non-specific binding. […] Test compounds were prepared as 100× stocks in DMSO and rapidly diluted into the aqueous environment. DMSO was added to control assays lacking a test compound. Primary screen interactions were performed in polypropylene 384-well plates in a final volume of 34 μL, while Kd determinations were performed in polystyrene 96-well plates in a final volume of 135 pt. […] The kinase concentration in the eluates was measured by quantitative PCR. Each kinase was tested individually against each compound. Kds were determined using eleven serial threefold dilutions. A selectivity score, which is a quantitative measure of selectivity of a compound against a panel of enzymes, may be calculated for a compound by dividing the number of enzymes for which a compound meets a set criteria, (for example, a binding constant of 100 nM or less), by the total number of enzymes tested. […] (Note, for those compounds tested in a larger kinase panel, as indicated by an asterisk (*) next to the S35 score, the divisor is 321 (i.e. the larger panel contains 321 distinct kinases, excluding mutant variants.)).
`COCCOc1cc2ncnc(Oc3cccc(NC(=O)Nc4cc(C(F)(F)F)nn4-c4ccccc4)c3)c2cc1OC` [Ex 221, 1-{3-[6-methoxy-7-(2-methoxyethoxy)quinazolin-4-yloxy]phenyl}-3-[1-phenyl-3-(trifluoromethyl)-1H-pyrazol-5-yl]urea] was tested, and the S35 was “C * (0.20 < C ≦ 0.40)”. In the case of `COCCOc1cc2ncnc(Sc3cccc(NC(=O)Nc4cc(C(F)(F)F)nn4-c4ccc(C)cc4)c3)c2cc1OC` [Ex 243, 1-{3-[6-methoxy-7-(2-methoxyethoxy)quinazolin-4-ylthio]phenyl}-3-[1-p-tolyl-3-(trifluoromethyl)-1H-pyrazol-5-yl]urea], the S35 is reported as “C * (0.20 < C ≦ 0.40)”.

Same assay, conditions: asterisk: panel of 321 distinct kinases; fraction of kinases inhibited 65% or greater
In the case of `COc1cc2ncnc(Sc3cccc(NC(=O)Nc4cc(C(F)(F)F)n(-c5ccccc5)n4)c3)c2cc1OC` [Ex 170, 1-[3-(6,7-dimethoxyquinazolin-4-ylthio)phenyl]-3-[1-phenyl-5-(trifluoromethyl)-1H-pyrazol-3-yl]urea], the S35 is reported as “B* (0.10 < B ≦ 0.20)”. `COc1cc2ncnc(Sc3cccc(NC(=O)Nc4cc(C(F)(F)F)n(C)n4)c3)c2cc1OC` [Ex 194, 1-[3-(6,7-dimethoxyquinazolin-4-ylthio)phenyl]-3-[1-methyl-5-(trifluoromethyl)-1H-pyrazol-3-yl]urea] was tested, and the S35 was “C* (0.20 < C ≦ 0.40)”. With `COc1cc2ncnc(Sc3cccc(NC(=O)Nc4cc(C(F)(F)F)nn4-c4ccc(C)cc4)c3)c2cc1OC` [Ex 199, 1-[3-(6,7-dimethoxyquinazolin-4-ylthio)phenyl]-3-[1-p-tolyl-3-(trifluoromethyl)-1H-pyrazol-5-yl]urea] the S35 was “D* (D > 0.40)”.

Same assay, conditions: no asterisk: panel of 290 distinct kinases
For `COc1cc2ncnc(Oc3cccc(NC(=O)Nc4cc(C(C)(C)CO)no4)c3)c2cc1OC` [Ex 255, 1-(3-(6,7-dimethoxyquinazolin-4-yloxy)phenyl)-3-(3-(1-hydroxy-2-methylpropan-2-yl)isoxazol-5-yl)urea], the S35 was “C (0.20 < C ≦ 0.40)”. In the case of `COc1cc2ncnc(Oc3cccc(NC(=O)Nc4cc(C(C)(C)C)nn4-c4cccnc4C)c3)c2cc1OC` [Ex 305, 1-(3-tert-butyl-1-(2-methylpyridin-3-yl)-1H-pyrazol-5-yl)-3-(3-(6,7-dimethoxyquinazolin-4-yloxy)phenyl)urea], the S35 is reported as “D (D > 0.40)”. `COc1cc2ncnc(Oc3cccc(NC(=O)Nc4cc(C(C)(C)C(F)(F)F)nn4-c4ccccc4)c3)c2cc1OC` [Ex 306, 1-(3-(6,7-dimethoxyquinazolin-4-yloxy)phenyl)-3-(1-phenyl-3-(1,1,1-trifluoro-2-methylpropan-2-yl)-1H-pyrazol-5-yl)urea] was tested, and the S35 was “D (D > 0.40)”. In the case of `COc1cc2ncnc(Sc3cccc(NC(=O)Nc4cc(C(C)(C)C(F)(F)F)nn4-c4ccccc4)c3)c2cc1OC` [Ex 307, 1-(3-(6,7-dimethoxyquinazolin-4-ylthio)phenyl)-3-(1-phenyl-3-(1,1,1-trifluoro-2-methylpropan-2-yl)-1H-pyrazol-5-yl)urea], the S35 is reported as “D (D > 0.40)”. In the case of `COc1cc2ncnc(Oc3cccc(NC(=O)Nc4cc(C(C)(C)C#N)nn4-c4ccccc4)c3)c2cc1OC` [Ex 308, 1-(3-(2-cyanopropan-2-yl)-1-phenyl-1H-pyrazol-5-yl)-3-(3-(6,7-dimethoxyquinazolin-4-yloxy)phenyl)urea], the S35 is reported as “D (D > 0.40)”. `COc1cc2nc(Cl)nc(Oc3cccc(NC(=O)Nc4cc(C(C)(C)C)on4)c3)c2cc1OC` [Ex 310, 1-(5-tert-butylisoxazol-3-yl)-3-(3-(2-chloro-6,7-dimethoxyquinazolin-4-yloxy)phenyl)urea] was tested, and the S35 was “A (A ≦ 0.10)”. `COc1cc2ncnc(Oc3cccc(NC(=O)Nc4cc(C(C)(F)F)nn4-c4cccnc4)c3)c2cc1OC` [Ex 311, 1-(3-(1,1-difluoroethyl)-1-(pyridin-3-yl)-1H-pyrazol-5-yl)-3-(3-(6,7-dimethoxyquinazolin-4-yloxy)phenyl)urea] was tested, and the S35 was “C (0.20 < C ≦ 0.40)”. With `COc1cc2ncnc(Oc3cccc(NC(=O)Nc4cc(C(C)(C)C)nn4-c4ccc(C)nc4)c3)c2cc1OC` [Ex 312, 1-(3-tert-butyl-1-(6-methylpyridin-3-yl)-1H-pyrazol-5-yl)-3-(3-(6,7-dimethoxyquinazolin-4-yloxy)phenyl)urea] the S35 was “D (D > 0.40)”. For `COc1cc2ncnc(Oc3cccc(NC(=O)Nc4cc(C(C)(C)C)nn4-c4cc[nH]c(=O)c4)c3)c2cc1OC` [Ex 313, 1-(3-tert-butyl-1-(2-oxo-1,2-dihydropyridin-4-yl)-1H-pyrazol-5-yl)-3-(3-(6,7-dimethoxyquinazolin-4-yloxy)phenyl)urea], the S35 was “D (D > 0.40)”. In the case of `COc1cc2ncnc(Oc3cccc(NC(=O)Nc4cc(C(C)C)nn4-c4cncc(F)c4)c3)c2cc1OC` [Ex 314, 1-(3-(6,7-dimethoxyquinazolin-4-yloxy)phenyl)-3-(1-(5-fluoropyridin-3-yl)-3-isopropyl-1H-pyrazol-5-yl)urea], the S35 is reported as “D (D > 0.40)”. `COc1ccc(-n2nc(C(C)(F)F)cc2NC(=O)Nc2cccc(Oc3ncnc4cc(OC)c(OC)cc34)c2)cc1` [Ex 315, 1-(3-(1,1-difluoroethyl)-1-(4-methoxyphenyl)-1H-pyrazol-5-yl)-3-(3-(6,7-dimethoxyquinazolin-4-yloxy)phenyl)urea] was tested, and the S35 was “D (D > 0.40)”. For `COc1cc2ncnc(Oc3cccc(NC(=O)Nc4cc(C(C)(F)F)nn4-c4cncc(F)c4)c3)c2cc1OC` [Ex 316, 1-(3-(1,1-difluoroethyl)-1-(5-fluoropyridin-3-yl)-1H-pyrazol-5-yl)-3-(3-(6,7-dimethoxyquinazolin-4-yloxy)phenyl)urea], the S35 was “C (0.20 < C ≦ 0.40)”. With `COc1cc2ncnc(Oc3cccc(NC(=O)Nc4cc(C(C)(C)C)nn4-c4ccc(=O)[nH]c4)c3)c2cc1OC` [Ex 317, 1-(3-tert-butyl-1-(6-oxo-1,6-dihydropyridin-3-yl)-1H-pyrazol-5-yl)-3-(3-(6,7-dimethoxyquinazolin-4-yloxy)phenyl)urea] the S35 was “D (D > 0.40)”. In the case of `COc1cc2ncnc(Oc3cccc(NC(=O)Nc4cc(C(C)(F)F)nn4-c4ccccc4)c3)c2cc1OC` [Ex 318, 1-(3-(1,1-difluoroethyl)-1-phenyl-1H-pyrazol-5-yl)-3-(3-(6,7-dimethoxyquinazolin-4-yloxy)phenyl)urea], the S35 is reported as “C (0.20 < C ≦ 0.40)”. `COc1cc2ncnc(Sc3cccc(NC(=O)Nc4cc(C(C)(F)F)nn4-c4ccccc4)c3)c2cc1OC` [Ex 319, 1-(3-(1,1-difluoroethyl)-1-phenyl-1H-pyrazol-5-yl)-3-(3-(6,7-dimethoxyquinazolin-4-ylthio)phenyl)urea] was tested, and the S35 was “C (0.20 < C ≦ 0.40)”. In the case of `COc1cc2ncnc(Oc3cccc(NC(=O)Nc4cc(C(C)(C)C)nn4-c4ccnc(C)c4)c3)c2cc1OC` [Ex 320, 1-(3-tert-butyl-1-(2-methylpyridin-4-yl)-1H-pyrazol-5-yl)-3-(3-(6,7-dimethoxyquinazolin-4-yloxy)phenyl)urea], the S35 is reported as “D (D > 0.40)”. With `CCn1nc(C(C)(C)C)cc1NC(=O)Nc1cccc(Sc2ncnc3cc(OC)c(OC)cc23)c1` [Ex 321, 1-(3-tert-butyl-1-ethyl-1H-pyrazol-5-yl)-3-(3-(6,7-dimethoxyquinazolin-4-ylthio)phenyl)urea] the S35 was “C (0.20 < C ≦ 0.40)”. In the case of `COc1cc2ncnc(Oc3cccc(NC(=O)Nc4cc(C(C)(C)C)nn4-c4cccnc4)c3)c2cc1OC` [Ex 322, 1-(3-tert-butyl-1-(pyridin-3-yl)-1H-pyrazol-5-yl)-3-(3-(6,7-dimethoxyquinazolin-4-yloxy)phenyl)urea], the S35 is reported as “D (D > 0.40)”. In the case of `COc1cc2ncnc(Sc3cccc(NC(=O)Nc4cc(C(C)(C)C)nn4-c4cccnc4)c3)c2cc1OC` [Ex 323, 1-(3-tert-butyl-1-(pyridin-3-yl)-1H-pyrazol-5-yl)-3-(3-(6,7-dimethoxyquinazolin-4-ylthio)phenyl)urea], the S35 is reported as “D (D > 0.40)”. With `COc1cc2ncnc(Oc3cccc(NC(=O)Nc4cc(C(C)C)nn4-c4ccccc4)c3)c2cc1OC` [Ex 324, 1-(3-(6,7-dimethoxyquinazolin-4-yloxy)phenyl)-3-(3-isopropyl-1-phenyl-1H-pyrazol-5-yl)urea] the S35 was “D (D > 0.40)”. With `COc1cc2ncnc(Sc3cccc(NC(=O)Nc4cc(C(C)C)nn4-c4ccccc4)c3)c2cc1OC` [Ex 325, 1-(3-(6,7-dimethoxyquinazolin-4-ylthio)phenyl)-3-(3-isopropyl-1-phenyl-1H-pyrazol-5-yl)urea] the S35 was “C (0.20 < C ≦ 0.40)”. For `COc1cc2ncnc(Oc3cccc(NC(=O)Nc4cc(C(C)(C)C)nn4-c4cncc(F)c4)c3)c2cc1OC` [Ex 326, 1-(3-tert-butyl-1-(5-fluoropyridin-3-yl)-1H-pyrazol-5-yl)-3-(3-(6,7-dimethoxyquinazolin-4-yloxy)phenyl)urea], the S35 was “D (D > 0.40)”. With `COc1cc2ncnc(Sc3cccc(NC(=O)Nc4cc(C(C)(C)C)nn4-c4cncc(F)c4)c3)c2cc1OC` [Ex 327, 1-(3-tert-butyl-1-(5-fluoropyridin-3-yl)-1H-pyrazol-5-yl)-3-(3-(6,7-dimethoxyquinazolin-4-ylthio)phenyl)urea] the S35 was “D (D > 0.40)”. In the case of `COc1cc2ncnc(Oc3cccc(NC(=O)Nc4cc(C(C)(C)C)nn4-c4ccc(C#N)cc4)c3)c2cc1OC` [Ex 328, 1-(3-tert-butyl-1-(4-cyanophenyl)-1H-pyrazol-5-yl)-3-(3-(6,7-dimethoxyquinazolin-4-yloxy)phenyl)urea], the S35 is reported as “D (D > 0.40)”. With `COc1cc2ncnc(Sc3cccc(NC(=O)Nc4cc(C(C)(C)C)nn4-c4ccc(C#N)cc4)c3)c2cc1OC` [Ex 329, 1-(3-tert-butyl-1-(4-cyanophenyl)-1H-pyrazol-5-yl)-3-(3-(6,7-dimethoxyquinazolin-4-ylthio)phenyl)urea] the S35 was “D (D > 0.40)”. `COc1cc2ncnc(Oc3cccc(NC(=O)Nc4cc(C(C)(C)C)nn4C4CCCCC4)c3)c2cc1OC` [Ex 330, 1-(3-tert-butyl-1-cyclohexyl-1H-pyrazol-5-yl)-3-(3-(6,7-dimethoxyquinazolin-4-yloxy)phenyl)urea] was tested, and the S35 was “C (0.20 < C ≦ 0.40)”.

Same assay, conditions: no asterisk: panel of 290 distinct kinases; fraction of kinases inhibited 65% or greater
For `COc1cc(OC2CCOCC2)c2c(Sc3cccc(NC(=O)Nc4cc(C(C)(C)C)on4)c3)ncnc2c1`, the S35 was “C (0.20 < C ≦ 0.40)”. For `COc1cc2c(Sc3cccc(NC(=O)Nc4cc(C(C)(C)C)on4)c3)ncnc2cc1OCCN1CCN(CCO)CC1` [Ex 84, 1-(5-tert-butylisoxazol-3-yl)-3-(3-(7-(2-(4-(2-hydroxyethyl)piperazin-1-yl)ethoxy)-6-methoxyquinazolin-4-ylthio)phenyl)urea], the S35 was “D (D > 0.40)”.
